From ChEMBL document CHEMBL1201862, “PubChem BioAssay data set” (2004)
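A five-concentration, 48-hour dose response in 96-well plates underlies each endpoint, interpolated linearly between surrounding concentrations. Abbreviation: GI50, concentration required for 50% inhibition of growth.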 Active and inactive are the calls of the source. Rule as the data show it: active = GI50 up to about 1.1 µM and inactive = higher.

Experiments:
Experiment in all cases: NCI tumour cell line growth inhibition, 48 h
[1] = test system: CAKI-1
[2] = test system: K562
[3] = test system: SF-268
[4] = test system: Hs-578T
[5] = test system: HCC 2998
[6] = test system: SN12C
[7] = test system: HOP-92
[8] = test system: ACHN
[9] = test system: SF-295
[10] = test system: SW-620
[11] = test system: T47D
[12] = test system: COLO 205
[13] = test system: BT-549
[14] = test system: RPMI-8226
[15] = test system: UACC-62
[16] = test system: SF-539
[17] = test system: NCI-H226
[18] = test system: HOP-62
[19] = test system: SK-MEL-28

Compound	GI50 [1]	GI50 [2]	GI50 [3]	GI50 [4]	GI50 [5]	GI50 [6]	GI50 [7]	GI50 [8]	GI50 [9]	GI50 [10]	GI50 [11]	GI50 [12]	GI50 [13]	GI50 [14]	GI50 [15]	GI50 [16]	GI50 [17]	GI50 [18]	GI50 [19]
O=C(O)CN1CCN(CC(=O)O)CCN(CC(=O)O)CCN(CC(=O)O)CC1 [TETRAXETAN]	> 100 µM (inactive)	> 100 µM (inactive)	> 100 µM (inactive)	> 100 µM (inactive)	> 100 µM (inactive)	> 100 µM (inactive)	> 100 µM (inactive)	> 100 µM (inactive)	> 100 µM (inactive)	> 100 µM (inactive)	> 100 µM (inactive)	> 100 µM (inactive)	> 100 µM (inactive)	> 100 µM (inactive)	> 100 µM (inactive)	> 100 µM (inactive)	> 100 µM (inactive)	> 100 µM (inactive)	–
CCOC(=O)CON=c1c2ccccc2ccc2ccccc12	> 100 µM (inactive)	> 100 µM (inactive)	> 100 µM (inactive)	> 100 µM (inactive)	26.1 µM (inactive)	> 100 µM (inactive)	> 100 µM (inactive)	> 100 µM (inactive)	> 100 µM (inactive)	> 100 µM (inactive)	> 100 µM (inactive)	> 100 µM (inactive)	> 100 µM (inactive)	> 100 µM (inactive)	> 100 µM (inactive)	> 100 µM (inactive)	> 100 µM (inactive)	> 100 µM (inactive)	> 100 µM (inactive)
O=C(Nn1c(-c2ccccc2)nc2ccccc2c1=O)c1ccc(Cl)cc1	–	> 100 µM (inactive)	> 100 µM (inactive)	34 µM (inactive)	> 100 µM (inactive)	> 100 µM (inactive)	75.3 µM (inactive)	94.2 µM (inactive)	> 100 µM (inactive)	> 100 µM (inactive)	85.5 µM (inactive)	–	> 100 µM (inactive)	76 µM (inactive)	48.3 µM (inactive)	> 100 µM (inactive)	> 100 µM (inactive)	> 100 µM (inactive)	> 100 µM (inactive)
CCOC(=O)CCC(NC(=O)c1ccc(OCc2nc3cc(C(F)(F)F)ccc3nc2-c2ccccc2)cc1)C(=O)OCC (stereo not drawn)	74.8 µM (inactive)	46.6 µM (inactive)	37.3 µM (inactive)	35.8 µM (inactive)	> 10 µM (inactive)	> 100 µM (inactive)	79.6 µM (inactive)	94.2 µM (inactive)	40.6 µM (inactive)	> 100 µM (inactive)	20.4 µM (inactive)	17.9 µM (inactive)	56.6 µM (inactive)	43.9 µM (inactive)	52.8 µM (inactive)	> 100 µM (inactive)	13 µM (inactive)	–	> 100 µM (inactive)
CC1CN(CCO)CC(C)O1 (stereo not drawn)	> 100 µM (inactive)	> 100 µM (inactive)	> 100 µM (inactive)	> 100 µM (inactive)	> 100 µM (inactive)	> 100 µM (inactive)	> 100 µM (inactive)	> 100 µM (inactive)	> 100 µM (inactive)	> 100 µM (inactive)	> 100 µM (inactive)	> 100 µM (inactive)	> 100 µM (inactive)	> 100 µM (inactive)	> 100 µM (inactive)	> 100 µM (inactive)	> 100 µM (inactive)	> 100 µM (inactive)	> 100 µM (inactive)
O=C(/C=C/C=C/c1ccccc1)c1ccccc1	17.1 µM (inactive)	17.1 µM (inactive)	19.3 µM (inactive)	20 µM (inactive)	17.8 µM (inactive)	15.9 µM (inactive)	18.4 µM (inactive)	–	–	16.7 µM (inactive)	18.4 µM (inactive)	17.7 µM (inactive)	18.8 µM (inactive)	16.1 µM (inactive)	17.4 µM (inactive)	17.3 µM (inactive)	16.7 µM (inactive)	–	17.5 µM (inactive)
CC(C)/C(Cl)=N\OC(=O)NNc1ccccc1	14.8 µM (inactive)	< 0.01 µM (active)	> 91.4 µM (inactive)	54.6 µM (inactive)	44.9 µM (inactive)	> 48.1 µM (inactive)	16.3 µM (inactive)	14.1 µM (inactive)	–	6.92 µM (inactive)	2.35 µM (inactive)	0.119 µM (active)	17.5 µM (inactive)	< 0.0247 µM (active)	–	29.3 µM (inactive)	27 µM (inactive)	> 43.1 µM (inactive)	–
O=S1(=O)CCN(Cc2ccccc2)/C1=N\S(=O)(=O)c1ccc(Cl)cc1	19.1 µM (inactive)	35.6 µM (inactive)	16.6 µM (inactive)	26.2 µM (inactive)	19.3 µM (inactive)	19.2 µM (inactive)	18.6 µM (inactive)	18.8 µM (inactive)	48.2 µM (inactive)	19.1 µM (inactive)	22.2 µM (inactive)	19.4 µM (inactive)	17.2 µM (inactive)	25.8 µM (inactive)	17.8 µM (inactive)	18.7 µM (inactive)	17.8 µM (inactive)	65.2 µM (inactive)	18.3 µM (inactive)
COC(=O)c1oc([N+](=O)[O-])c(Cl)c1Cl	2.44 µM (inactive)	2.56 µM (inactive)	8.28 µM (inactive)	11.4 µM (inactive)	20 µM (inactive)	7.53 µM (inactive)	20 µM (inactive)	8.91 µM (inactive)	11.8 µM (inactive)	4.07 µM (inactive)	4.76 µM (inactive)	4.12 µM (inactive)	7.98 µM (inactive)	3.96 µM (inactive)	8.47 µM (inactive)	6.01 µM (inactive)	21.3 µM (inactive)	8.71 µM (inactive)	8.53 µM (inactive)
COc1cccc2c1OC1(C=C2)Oc2ccccc2C(=O)N1C (stereo not drawn)	8.18 µM (inactive)	17.5 µM (inactive)	34.3 µM (inactive)	21.5 µM (inactive)	26.7 µM (inactive)	22.5 µM (inactive)	35.2 µM (inactive)	35.2 µM (inactive)	22.8 µM (inactive)	42.7 µM (inactive)	31.9 µM (inactive)	31.7 µM (inactive)	31.2 µM (inactive)	27.9 µM (inactive)	40.6 µM (inactive)	–	20.9 µM (inactive)	51.5 µM (inactive)	59 µM (inactive)
COC(=O)C(=O)C(C(=O)OC)C(=O)C(=O)Nc1c(Cl)cc([N+](=O)[O-])cc1Cl (stereo not drawn)	> 100 µM (inactive)	> 100 µM (inactive)	40.1 µM (inactive)	66.2 µM (inactive)	> 100 µM (inactive)	> 100 µM (inactive)	> 100 µM (inactive)	80.2 µM (inactive)	64 µM (inactive)	> 100 µM (inactive)	> 100 µM (inactive)	–	> 100 µM (inactive)	> 100 µM (inactive)	> 100 µM (inactive)	> 100 µM (inactive)	> 100 µM (inactive)	37.1 µM (inactive)	> 100 µM (inactive)
Cc1c2oc(=O)c(C#N)cc2c2ccccn12	62.8 µM (inactive)	> 100 µM (inactive)	> 100 µM (inactive)	> 100 µM (inactive)	> 100 µM (inactive)	–	> 100 µM (inactive)	> 100 µM (inactive)	20.2 µM (inactive)	> 100 µM (inactive)	> 100 µM (inactive)	> 100 µM (inactive)	25.8 µM (inactive)	> 100 µM (inactive)	> 100 µM (inactive)	81.7 µM (inactive)	> 100 µM (inactive)	–	> 100 µM (inactive)
CCCc1nc2c(n1CC)C(=O)c1ccccc1C2=O	–	31.1 µM (inactive)	45.5 µM (inactive)	> 100 µM (inactive)	30.8 µM (inactive)	30.5 µM (inactive)	> 10 µM (inactive)	40.3 µM (inactive)	56 µM (inactive)	39.1 µM (inactive)	28.5 µM (inactive)	35.5 µM (inactive)	79.8 µM (inactive)	31.3 µM (inactive)	26 µM (inactive)	63.5 µM (inactive)	56 µM (inactive)	> 100 µM (inactive)	82.2 µM (inactive)
CC(=O)NC1=C(NCCCl)C(=O)c2ccccc2C1=O	–	27.9 µM (inactive)	59.8 µM (inactive)	43.5 µM (inactive)	32.7 µM (inactive)	34.7 µM (inactive)	56.6 µM (inactive)	42.8 µM (inactive)	37.4 µM (inactive)	25.4 µM (inactive)	25.1 µM (inactive)	28.4 µM (inactive)	47.9 µM (inactive)	40.9 µM (inactive)	20 µM (inactive)	40.8 µM (inactive)	49.1 µM (inactive)	64 µM (inactive)	72.3 µM (inactive)
COC(=O)C(=O)C(C(=O)C(=O)Nc1nnc(S)[nH]1)c1nc2ccc([N+](=O)[O-])cc2nc1O (stereo not drawn)	> 100 µM (inactive)	57.8 µM (inactive)	> 100 µM (inactive)	> 100 µM (inactive)	> 100 µM (inactive)	> 100 µM (inactive)	> 100 µM (inactive)	86.9 µM (inactive)	> 100 µM (inactive)	> 100 µM (inactive)	> 100 µM (inactive)	–	> 100 µM (inactive)	> 100 µM (inactive)	> 100 µM (inactive)	> 100 µM (inactive)	> 100 µM (inactive)	> 100 µM (inactive)	> 100 µM (inactive)
